One assay deals with QSOX1-a mRNA. In words: QSOX1-a mRNA abundance in RNase L-knockdown (CRISPR-edited) MDA-MB-231 cells. Type of assay: cell-based, human. The conditions noted are these: CRISPR-edited cells with RNase L knockdown. On the procedure:
The CRISPR-edited MDA-MB-231 cell lines used in this study were the same as those previously reported and characterized.^8 Briefly, lentiviral constructs containing Cas9 and gRNA targeting RNase L mRNA (or a scramble control) were purchased (Transomic Tech) and transfected in HEK293T cells (ATCC CRL-11268) to harvest virus. Transduction to MDA-MB-231 cells were performed in the presence of […] polybrene (Millipore, Cat #TR-1003-G) followed by selection with puromycin.
Analysis of mRNA Abundance by RT-qPCR. Unless stated otherwise, all RT-qPCR experiments were performed to measure nascent RNA levels by using Click-it Nascent RNA Capture Kit (Cat #C10365, Thermo Fisher) per the manufacturer's protocols. Briefly, cells were treated with 0.2 mM of ethynyl uridine (EU) in growth medium for 16 h, after which the medium was replaced with fresh growth medium lacking EU. Compound or ASO treatment was performed at the same time of initial EU treatment, and compounds were replenished after replacing the medium to remove EU. Total RNA was extracted by using a Zymo Quick-RNA Miniprep Kit as per manufacturer's protocol with DNase treatment. The click reaction and pull-down of nascent RNA were performed as described in “In Vitro Chemical-Crosslinking and Isolation by Pull-down (Chem-CLIP) with Fluorescently Labeled RNA”. […]

The next assay relates to SQSTM1 mRNA. In words: SQSTM1 mRNA abundance by RT-qPCR in MDA-MB-231 cells. Type of assay: cell-based, human. The conditions noted are these: 48 h treatment. On the procedure: Analysis of mRNA Abundance by RT-qPCR. Unless stated otherwise, all RT-qPCR experiments were performed to measure nascent RNA levels by using Click-it Nascent RNA Capture Kit (Cat #C10365, Thermo Fisher) per the manufacturer's protocols. Briefly, cells were treated with 0.2 mM of ethynyl uridine (EU) in growth medium for 16 h, after which the medium was replaced with fresh growth medium lacking EU. Compound or ASO treatment was performed at the same time of initial EU treatment, and compounds were replenished after replacing the medium to remove EU. Total RNA was extracted by using a Zymo Quick-RNA Miniprep Kit as per manufacturer's protocol with DNase treatment. The click reaction and pull-down of nascent RNA were performed as described in “In Vitro Chemical-Crosslinking and Isolation by Pull-down (Chem-CLIP) with Fluorescently Labeled RNA”. Reverse transcription (RT) was performed by using 300 ng total RNA and a QScript cDNA synthesis kit (QuantaBio) per manufacturer's protocols qPCR was performed in 384-well plates by using Power SYBR Green Master Mix (Life Technologies) on a QuantStudioS™ Cycler (Applied Biosystems) using the “Comparative Ct with Melt” method.
(In general: Real-time PCR tracks product formation cycle by cycle.)

For assay [1], the target named is QSOX1 5′UTR hairpin (model of the QSOX1-a binding site). In words: In vitro binding by fluorescence polarization, Cy5-labeled WT RNA. The arrangement: species or system human. On the procedure: In Vitro Binding by Measuring Changes in Fluorescence Polarization. Cy5-labeled RNA was folded by heating at 95° C. for 2 min in 1× Folding Buffer and cooled on ice. Serial dilutions of F1 (200 to 0.4 μM, 1:1 dilutions) were prepared in 1× Folding Buffer with 4% (w/v) bovine serum albumin (BSA) with constant DMSO concentration (2% v/v). The compound solutions (10 μL) were added to a well of non-binding 384-well plate (Corning). An equal volume of folded RNA was adding to each well with a final concentration of 50 nM. The samples were incubated at room temperature for 30 min, and then fluorescence polarization was measured with a Molecular Devices SpectraMax M5 plate reader with an excitation wavelength of 640 nm and an emission wavelength of 680 nm.
(Polarisation of emitted light reports the rotation of a fluorescent probe.)

The test system of assay [2] is DNA and proteins in MDA-MB-231 cells. In words: Cross-linking to RNA, DNA and proteins in live cells with clickable TAMRA azide. The class given is cell-based, human. The note with it: 16 h, TAMRA imaging. The method, then: Cross-linking to RNA, DNA, and Proteins in Live Cells with Clickable TAMRA Azide. MDA-MB-231 cells were seeded in 100 mm dishes and allowed to reach ˜80% confluency. The cells were then treated with […] of compound in growth medium and incubated for 16 h. Cells were washed with 1×DPBS and irradiated with UV light for 10 min. Total RNA was harvested using a Zymo Quick-RNA Miniprep Kit per the manufacturer's protocol with DNase and proteinase treatment. Total DNA was harvested using a Zymo Quick-DNA Miniprep Kit per the manufacturer's protocol with RNase and proteinase treatment. Total protein was harvested by using Mammalian Protein Extraction Reagent (M-PER, Thermo Scientific) per the manufacturer's protocol with RNase and DNase treatment. Each sample (4 μg for RNA or DNA, 25 μg for proteins) was then incubated in a “click reaction mixture” with TAMRA azide as described in In Vitro Screening of Functionalized Compounds with Clickable TAMRA Azide. DNA and RNA samples were separated by using a 1.0% (w/v) and 1.5% (w/v) agarose gel in TBE buffer, respectively. Protein samples were loaded to 10% SDS-polyacrylamide gel. All samples were first imaged with TAMRA channel by using a Typhoon FLA 9500 variable mode imager (GE Healthcare Life Sciences). […]

On to `CCOC(=O)C1=C(Nc2ccccc2)S/C(=C\c2ccc(OCCOCCOCCOCCNC(=O)CCC(=O)N(C)[C@H]3CC[C@@H](c4ccc(Cl)c(Cl)c4)c4ccccc43)c(O)c2)C1=O` [Compound F1-RIBOTAC], for which the “effect on QSOX1-a mRNA in RNase L-knockdown cells” value in the assay with QSOX1-a mRNA is given as “ablated”. The “effect on SQSTM1 mRNA levels” value in the assay on SQSTM1 mRNA is listed as “No significant effect”. The affinity in assay [1], expressed as Kd, was 11 ± 5 µM.

`C#CCCC1(CCC(=O)N(C)[C@H]2CC[C@@H](c3ccc(Cl)c(Cl)c3)c3ccccc32)N=N1` [Compound F1]: the “enrichment of protein or DNA targets compared to the control probe” value in assay [2] was “No significant enrichment”.

The Kd is the constant that tells how readily two partners part at equilibrium. A lower Kd goes with higher affinity.

The values are drawn from patent US20250346943A1, “DEGRADER COMPOUNDS OF QSOX1 mRNA” (UNIVERSITY OF FLORIDA RESEARCH FOUNDATION, INCORPORATED, priority 2022, published 2025).
